Laboratory results from ChEMBL document CHEMBL6071121, “Synthetic approaches and clinical application of small-molecule inhibitors of sodium-dependent glucose transporters 2 for the treatment of type 2 diabetes mellitus” (Eur J Med Chem, 2024).
One block for each compound: values may come before it.

Experiments:
[1] = target: T1, Sodium/glucose cotransporter 2 (Homo sapiens, UniProt P31639); experiment: Inhibition of human SGLT2
T1 sequence (P31639 whole entry): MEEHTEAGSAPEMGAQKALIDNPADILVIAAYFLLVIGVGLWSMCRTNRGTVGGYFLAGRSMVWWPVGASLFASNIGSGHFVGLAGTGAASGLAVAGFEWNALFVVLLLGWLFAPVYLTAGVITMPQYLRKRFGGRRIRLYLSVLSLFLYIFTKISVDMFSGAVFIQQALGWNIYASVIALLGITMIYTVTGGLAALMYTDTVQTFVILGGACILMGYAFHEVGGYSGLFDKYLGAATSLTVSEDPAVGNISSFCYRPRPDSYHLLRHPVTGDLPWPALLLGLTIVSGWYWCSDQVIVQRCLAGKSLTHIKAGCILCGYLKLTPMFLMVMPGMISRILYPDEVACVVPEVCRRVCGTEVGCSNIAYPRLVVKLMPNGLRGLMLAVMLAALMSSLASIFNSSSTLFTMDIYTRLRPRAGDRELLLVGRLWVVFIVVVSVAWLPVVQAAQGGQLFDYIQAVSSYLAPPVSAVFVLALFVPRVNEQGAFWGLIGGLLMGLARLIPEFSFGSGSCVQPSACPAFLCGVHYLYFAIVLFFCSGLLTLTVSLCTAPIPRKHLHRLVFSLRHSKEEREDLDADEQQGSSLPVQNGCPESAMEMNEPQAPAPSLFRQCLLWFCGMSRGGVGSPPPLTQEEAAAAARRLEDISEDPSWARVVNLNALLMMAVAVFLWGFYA

[2] = target: T2, Sodium/glucose cotransporter 2 (Rattus norvegicus, UniProt P53792); experiment: Inhibition of rat SGLT2
T2 sequence (P53792 whole entry): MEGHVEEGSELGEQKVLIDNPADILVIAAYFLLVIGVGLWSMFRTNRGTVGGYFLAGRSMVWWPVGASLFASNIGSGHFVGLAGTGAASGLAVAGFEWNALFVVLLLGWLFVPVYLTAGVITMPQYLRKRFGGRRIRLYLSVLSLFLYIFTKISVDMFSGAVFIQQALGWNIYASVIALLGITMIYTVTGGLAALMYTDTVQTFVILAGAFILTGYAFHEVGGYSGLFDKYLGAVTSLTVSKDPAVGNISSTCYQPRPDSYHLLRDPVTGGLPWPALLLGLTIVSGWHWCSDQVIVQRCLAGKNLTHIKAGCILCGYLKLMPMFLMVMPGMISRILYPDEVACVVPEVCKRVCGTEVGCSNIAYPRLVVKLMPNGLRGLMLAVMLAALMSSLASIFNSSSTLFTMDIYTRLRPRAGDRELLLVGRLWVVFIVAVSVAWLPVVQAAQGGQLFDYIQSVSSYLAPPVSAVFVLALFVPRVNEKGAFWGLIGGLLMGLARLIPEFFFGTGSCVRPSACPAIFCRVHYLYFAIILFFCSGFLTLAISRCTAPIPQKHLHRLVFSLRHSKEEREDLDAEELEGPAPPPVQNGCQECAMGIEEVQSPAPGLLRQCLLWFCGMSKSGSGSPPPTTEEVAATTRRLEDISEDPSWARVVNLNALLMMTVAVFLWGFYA

[3] = target: T3, Sodium/glucose cotransporter 2 (Mus musculus, UniProt Q923I7); experiment: Inhibition of mouse SGLT2
T3 sequence (Q923I7 whole entry): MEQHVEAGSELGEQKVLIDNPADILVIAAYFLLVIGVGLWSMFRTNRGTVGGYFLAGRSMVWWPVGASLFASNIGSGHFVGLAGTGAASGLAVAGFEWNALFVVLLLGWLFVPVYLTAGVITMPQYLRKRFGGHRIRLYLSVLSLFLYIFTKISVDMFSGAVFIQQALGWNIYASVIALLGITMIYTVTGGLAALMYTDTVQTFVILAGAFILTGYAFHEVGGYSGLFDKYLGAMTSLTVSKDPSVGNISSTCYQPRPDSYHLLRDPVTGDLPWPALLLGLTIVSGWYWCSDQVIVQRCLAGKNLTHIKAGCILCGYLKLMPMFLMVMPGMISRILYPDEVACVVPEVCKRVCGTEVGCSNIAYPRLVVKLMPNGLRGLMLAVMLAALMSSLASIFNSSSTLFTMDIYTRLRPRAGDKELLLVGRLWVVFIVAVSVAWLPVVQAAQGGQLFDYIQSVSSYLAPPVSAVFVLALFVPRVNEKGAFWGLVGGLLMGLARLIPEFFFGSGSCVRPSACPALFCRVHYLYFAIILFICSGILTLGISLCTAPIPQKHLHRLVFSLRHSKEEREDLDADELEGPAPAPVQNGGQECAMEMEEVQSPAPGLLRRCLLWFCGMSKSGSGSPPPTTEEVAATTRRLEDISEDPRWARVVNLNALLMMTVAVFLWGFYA

[4] = target: T4, Sodium/glucose cotransporter 1 (Homo sapiens, UniProt P13866); experiment: Inhibition of human SGLT1 expressed in HEK293 cells using 14C-AMG as substrate preincubated for 15 mins followed by substrate addition measured after 2 hrs by liquid scintillation counter analysis; format: cell-based
T4 sequence (P13866 whole entry): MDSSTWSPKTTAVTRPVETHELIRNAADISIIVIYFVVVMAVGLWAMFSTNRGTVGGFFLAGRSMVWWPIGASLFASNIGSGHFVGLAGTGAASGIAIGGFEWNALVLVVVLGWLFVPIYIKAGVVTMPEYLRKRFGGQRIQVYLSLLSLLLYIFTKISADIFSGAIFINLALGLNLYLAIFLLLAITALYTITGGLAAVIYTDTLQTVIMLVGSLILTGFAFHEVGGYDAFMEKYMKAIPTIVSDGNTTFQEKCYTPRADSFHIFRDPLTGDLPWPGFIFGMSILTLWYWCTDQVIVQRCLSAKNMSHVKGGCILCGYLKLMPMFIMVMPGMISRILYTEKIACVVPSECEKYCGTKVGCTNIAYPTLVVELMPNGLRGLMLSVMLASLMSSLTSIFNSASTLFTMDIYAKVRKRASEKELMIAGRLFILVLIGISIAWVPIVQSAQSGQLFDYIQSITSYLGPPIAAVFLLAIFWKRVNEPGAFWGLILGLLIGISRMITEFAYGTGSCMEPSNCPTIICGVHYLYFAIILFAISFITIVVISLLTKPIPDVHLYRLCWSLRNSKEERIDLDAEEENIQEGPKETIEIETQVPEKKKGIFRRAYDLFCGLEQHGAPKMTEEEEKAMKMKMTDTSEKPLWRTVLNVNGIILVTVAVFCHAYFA

[5] = target: T1, Sodium/glucose cotransporter 2; experiment: Inhibition of human SGLT2 expressed in HEK293 cells using 14C-AMG as substrate preincubated for 15 mins followed by substrate addition measured after 2 hrs by liquid scintillation counter analysis; format: cell-based
[6] = target: T5, Sodium/glucose cotransporter 2 (Rattus norvegicus) (UniProt P53792); experiment: In vivo inhibition of SGLT2-mediated reduction in urinary glucose excretion in rat administered orally; format: functional, organism-based; conditions: route po
T5 sequence (whole entry): T2 sequence (P53792 whole entry)

[7] = target: T6, Sodium/glucose cotransporter 2 (Mus musculus) (UniProt Q923I7); experiment: In vivo inhibition of SGLT2-mediated reduction in urinary glucose excretion in mouse administered orally; format: functional, organism-based; conditions: route po
T6 sequence (whole entry): T3 sequence (Q923I7 whole entry)

[8] = target: T6, Sodium/glucose cotransporter 2 (Mus musculus); experiment: In vivo inhibition of SGLT2-mediated increase in blood glucose level in mouse administered orally; format: functional, organism-based; conditions: route po
[9] = target: T6, Sodium/glucose cotransporter 2 (Mus musculus); experiment: In vivo inhibition of SGLT2-mediated increase in blood glucose level in mouse administered intraperitoneally; format: functional, organism-based; conditions: route ip
[10] = target: T4, Sodium/glucose cotransporter 1; experiment: Inhibition of SGLT1 (unknown origin)

- Ki [1]: 2.9 nM
- Ki [2]: 14.9 nM
- Ki [3]: 6.4 nM
Structure (SMILES): CCc1ccc(Cc2ccc3c(c2)[C@]2(OC3)O[C@H](CO)[C@@H](O)[C@H](O)[C@H]2O)cc1 [TOFOGLIFLOZIN]

- IC50 [4]: 4320 nM
- IC50 [5]: 2.38 nM
Structure (SMILES): CCOc1ccc(Cc2cc([C@@]34OC[C@@](CO)(O3)[C@@H](O)[C@H](O)[C@H]4O)ccc2Cl)cc1F [HENAGLIFLOZIN]

- Ki [1]: 1950 nM
- Ki [2]: 2140 nM
Structure (SMILES): CCOC(=O)OC[C@H]1O[C@@H](Oc2nn(C(C)C)c(C)c2Cc2ccc(OC(C)C)cc2)[C@H](O)[C@@H](O)[C@@H]1O [REMOGLIFLOZIN ETABONATE]

- ID30 [6]: 39.8 mg/kg
- ID30 [7]: 79 mg/kg
- ID50 [8]: 26.1 mg/kg
- ID50 [9]: 13.2 mg/kg
- IC50 [10]: > 10000 nM
Structure (SMILES): COc1ccc(Cc2sccc2O[C@@H]2O[C@H](CO)[C@@H](O)[C@H](O)[C@H]2O)cc1 [ATIGLIFLOZIN]
